Data reported in patent US10869931B2, “Polyethylene glycol-modified angiogenesis inhibitor HM-1 and application thereof” (NANJING ANJI BIOLOGICAL TECHNOLOGY CO.,LTD, priority 2016, dated 2020).
Marks after values point to notes of the source that are not given here. Where no end group is shown, it is not given here.

Legend:
[1] = test system: Esophageal cancer tumor cells; experiment: MTT proliferation inhibition, esophageal cancer cells; type: cell-based, human; design: concentration or dose not given beside the values; settings: 48 h
Method: (§1) The activity of mPEG-HM-1 to inhibit the growth of various tumor cells was examined by MTT assay. The tumor cells were cultured to a concentration of 90% or more in a 37° C., 5% CO2 incubator and collected by trypsinization. The cells were resuspended in the culture medium and counted under a microscope to adjust the cell concentration to 2×10^4 cells/mL, the cell suspension was inoculated into a 96-well plate at 100 μL/well and incubated overnight at 37° C. in a 5% CO2 incubator. mPEG-HM-1 was diluted with the culture solution to each predetermined concentration. Docetaxel is diluted to the final concentration with the culture medium. After the cells were fully attached, each dilution was added to a 96-well plate (100 μL/well). The mPEG-HM-1 dilution was added as a drug-administered group, and docetaxel was added as a positive control group, and a culture solution without any drug was used as a negative control group. Incubate for 48 h at 37° C. in a 5% CO2 incubator. 5 mg/mL of MTT was added to a 96-well plate at 20 μL per well, and incubation was continued for 4 hours. The medium was aspirated, dissolved in 150 μL of DMSO per well, and gently mixed by shaking for 10 min. The absorbance was measured at a measurement wavelength of 570 nm and a reference wavelength of 630 nm using a microplate reader, and the rate of growth inhibition (proliferation inhibition, PI) was calculated. The formula is as follows: PI (%)=1−administration group/negative group
(§2) The test was repeated 3 times independently, and the results obtained by the test were expressed as mean±SD, and the test results are shown in Table 15 to Table 18.

[2] = test system: Pancreatic cancer tumor cells; experiment: MTT proliferation inhibition, pancreatic cancer cells; type: cell-based, human; design: concentration or dose not given beside the values; settings: 48 h
Method: as §1, §2

[3] = test system: Lung cancer tumor cells; experiment: MTT proliferation inhibition, lung cancer cells; type: cell-based, human; design: concentration or dose not given beside the values; settings: 48 h
Method: as §1, §2

[4] = test system: Liver cancer tumor cells; experiment: MTT proliferation inhibition, liver cancer cells; type: cell-based, human; design: concentration or dose not given beside the values; settings: 48 h
Method: as §1, §2

[5] = test system: Colorectal cancer tumor cells; experiment: MTT proliferation inhibition, colorectal cancer cells; type: cell-based, human; design: concentration or dose not given beside the values; settings: 48 h
Method: as §1, §2

[6] = test system: sarcoma tumor cells; experiment: MTT proliferation inhibition, sarcoma cells; type: cell-based, human; design: concentration or dose not given beside the values; settings: 48 h
Method: as §1, §2

[7] = test system: Human Umbilical Vein Endothelial Cells (HUVEC); experiment: Transwell migration of HUVEC; type: cell-based; settings: 24 h
Method: 10 mg/mL Matrigel was diluted 1:2 with HUVEC-specific medium, spread on a transwell chamber membrane, and air-dried at room temperature. HUVEC cells cultured in logarithmic growth phase were digested with trypsin digest, collected, washed twice with PBS, and resuspended in blank HUVECs-specific medium. The cells were counted under a microscope, and the cell concentration was adjusted to 1×10^5/mL. The test solutions of each group were prepared and diluted to 100 μL with a blank HUVECs-specific medium. The cells were seeded into a transwell chamber at 100 μL per well, and each set of test solution was added to the chamber. The cell culture was stimulated by adding 0.6 mL of endothelial cell culture medium containing 5% fetal bovine serum and 1% ECGS into a 24-well plate, and cultured at 5% CO2 for 24 hour at 37° c. Discard the culture medium in the well, fix it with 90% alcohol at room temperature for 30 minutes, 0.1% crystal violet for 10 min at room temperature, rinse with water, gently wipe off the unsprayed cells in the upper layer with a cotton swab, observe under microscope and select four fields to take pictures. Calculate migration inhibition (MI) according to the formula: […]
Ntest was the number of cell migration in the test group, and Ncontrol was the number of cell migration in the blank control group.
The test was repeated 3 times independently. The results obtained from the test were calculated as mean±SD, and a statistical T test was performed. *P<0.05 was a significant difference, and **P<0.01 was a very significant difference.

[8] = test system: corneal neovascularization in BALB/c mice; experiment: Alkali-burn corneal neovascularization in BALB/c mice (CD31 microvessel density); type: in vivo, mouse; settings: for Inhibition rate: corneal microvessel density vs control; for Inhibition rate / MVD: day 14 after alkali burn, intravitreal once a day for 1 week; for MVD: microvessel density (CD31) of cornea
Description: (1) Preparation of corneal neovascularization model induced by alkali burn in BALB/c mice: mice were randomly grouped and labeled as mPEG-HM-1 experimental group and control group, 5 […] in each group, respectively, was given mPEG-HM-1 and saline by Intravitreal injection after alkali burn, once a day for 1 week. The inflammatory reaction and neovascularization of the cornea were observed under slit lamp microscope at 1 d, 7 d, and 14 d after alkali burn. On the 14th day after alkali burn, the corneal neovascularization was recorded under the slit lamp microscope in the anterior segment of the eye. All the mice were euthanized by cervical dislocation and the eyeballs were removed, washed with saline to rid of blood, and was fixed in 4% paraformaldehyde for 1.5 h, dehydrated in PBS containing 30% sucrose overnight, embedded in OCT frozen section embedding agent, stored in −80° C. refrigerator, frozen section 8 μm, and underwent immunocytochemical detection of CD31 expression. (2) Quantitative measurement of corneal tissue microvessel density: Microvessel density (MVD) is an indicator for evaluating angiogenesis. Vascular endothelial cells were labeled with anti-CD31 antibody by immunohistochemistry, and the number of microvessels per unit area was counted to measure the degree of neovascularization. Standards for counting microvessels: Microscopically, the endothelial cells or cell clusters that are clearly demarcated from adjacent tissues in the corneal tissue and stained brown or brown are counted in the neovascularization. The number of new blood vessels in the whole section was counted under a 10×20 microscope. After the corneal tissue was photographed, the entire corneal tissue area was calculated by image processing software Image J, and the neovascular density of the whole section was determined. The test was repeated 3 times independently. The results obtained by the test were expressed as mean±SD, and a statistical T test was performed. *P<0.05 was a significant difference, and **P<0.01 was a very significant difference.

Substance | rate of growth inhibition [1] [%] | rate of growth inhibition [2] [%] | rate of growth inhibition [3] [%] | rate of growth inhibition [4] [%] | rate of growth inhibition [5] [%] | rate of growth inhibition [6] [%] | cell migration number (Mean ± SD) ([7]; 70 μg/mL) | inhibition rate of HUVEC migration ([7]; 70 μg/mL) | cell migration number (Mean ± SD) ([7]; 80 μg/mL) | inhibition rate of HUVEC migration ([7]; 80 μg/mL) | cell migration number (Mean ± SD) ([7]; 90 μg/mL) | inhibition rate of HUVEC migration ([7]; 90 μg/mL) | cell migration number (Mean ± SD) ([7]; 100 μg/mL) | inhibition rate of HUVEC migration ([7]; 100 μg/mL) | Inhibition rate [8] [%] | MVD [8] | cell migration number (Mean ± SD) ([7]; 50 μg/mL) | inhibition rate of HUVEC migration ([7]; 50 μg/mL) | cell migration number (Mean ± SD) ([7]; 60 μg/mL) | inhibition rate of HUVEC migration ([7]; 60 μg/mL) | further results
mPEG-ALD20k-Arg-Gly-Ala-Asp-Arg-Ala-Gly-Gly-Gly-Gly-Arg-Gly-Asp ({mPEG‑ALD 20 kDa}-RGADRAGGGGRGD) [mPEG-ALD20k-HM-1] | 60.18 ± 15.32 | 70.65 ± 20.29 | 66.38 ± 17.16 | 65.31 ± 18.18 | 72.43 ± 19.32 | 50.96 ± 11.68 | 611.92 ± 52.08 | 40.53%* | 507.07 ± 40.74 | 50.72% | 403.15 ± 48.80 | 60.82% | 564.59 ± 50.42 | 45.13%* | 48.04 | 34.67 ± 6.953** |  |  |  |  | 
mPEG-ALD40k-Arg-Gly-Ala-Asp-Arg-Ala-Gly-Gly-Gly-Gly-Arg-Gly-Asp ({mPEG‑ALD 40 kDa}-RGADRAGGGGRGD) [mPEG-ALD40k-HM-1] | 58.11 ± 14.67 | 65.31 ± 19.81 | 55.44 ± 16.13 | 60.78 ± 10.88 | 70.92 ± 16.52 | 45.93 ± 10.77 |  |  |  |  | 534.34 ± 56.62 | 48.07%* | 510.47 ± 60.56 | 50.39% | 46.11 | 35.96 ± 6.862** |  |  |  |  | cell migration number (Mean ± SD) ([7]; 110 μg/mL): 471.88 ± 46.27; inhibition rate of HUVEC migration ([7]; 110 μg/mL): 54.14%; cell migration number (Mean ± SD) ([7]; 120 μg/mL): 565.31 ± 50.34; inhibition rate of HUVEC migration ([7]; 120 μg/mL): 45.06%*
mPEG-SC5k-Arg-Gly-Ala-Asp-Arg-Ala-Gly-Gly-Gly-Gly-Arg-Gly-Asp ({mPEG‑SC 5 kDa}-RGADRAGGGGRGD) [mPEG-SC5k-HM-1] | 44.38 ± 10.72 | 51.37 ± 16.23 | 45.33 ± 12.67 | 51.34 ± 11.25 | 55.35 ± 12.82 | 39.42 ± 11.15 |  |  |  |  |  |  |  |  | 40.52 | 39.69 ± 3.527* | 469.59 ± 48.95 | 55.73% | 601.65 ± 60.73 | 43.28%* | cell migration number (Mean ± SD) ([7]; 30 μg/mL): 617.03 ± 60.97; inhibition rate of HUVEC migration ([7]; 30 μg/mL): 41.83%*; cell migration number (Mean ± SD) ([7]; 40 μg/mL): 517.43 ± 50.39; inhibition rate of HUVEC migration ([7]; 40 μg/mL): 51.22%
mPEG-SC10k-Arg-Gly-Ala-Asp-Arg-Ala-Gly-Gly-Gly-Gly-Arg-Gly-Asp ({mPEG‑SC 10 kDa}-RGADRAGGGGRGD) [mPEG-SC10k-HM-1] | 52.18 ± 10.25 | 60.53 ± 17.16 | 50.29 ± 13.18 | 57.18 ± 12.35 | 61.35 ± 16.88 | 45.49 ± 11.89 | 439.89 ± 48.08 | 58.53% | 580.33 ± 58.20 | 45.29%* |  |  |  |  | 52.17 | 31.92 ± 3.648** | 612.15 ± 50.34 | 42.49%* | 527.08 ± 48.30 | 50.31% | inhibition rate of corneal neovascularization ([8]; BALB/c mice, alkali burn, intravitreal injection once a day for 1 week): 52.17%
mPEG-SC20k-Arg-Gly-Ala-Asp-Arg-Ala-Gly-Gly-Gly-Gly-Arg-Gly-Asp ({mPEG‑SC 20 kDa}-RGADRAGGGGRGD) [mPEG-SC20k-HM-1] | 55.51 ± 16.22 | 62.63 ± 18.13 | 53.87 ± 15.66 | 61.09 ± 14.09 | 66.19 ± 20.58 | 48.93 ± 10.53 | 596.77 ± 50.58 | 43.74%* | 499.29 ± 50.26 | 52.93% | 415.07 ± 46.74 | 60.87% | 559.75 ± 52.94 | 47.23%* | 46.53 | 35.68 ± 4.842** |  |  |  |  | 
mPEG-SC40k-Arg-Gly-Ala-Asp-Arg-Ala-Gly-Gly-Gly-Gly-Arg-Gly-Asp ({mPEG‑SC 40 kDa}-RGADRAGGGGRGD) [mPEG-SC40k-HM-1] | 52.12 ± 12.35 | 60.45 ± 17.25 | 51.32 ± 16.29 | 60.37 ± 14.74 | 62.45 ± 19.22 | 45.26 ± 11.61 |  |  |  |  | 632.63 ± 58.69 | 40.36%* | 501.84 ± 62.84 | 52.69% | 43.48 | 37.72 ± 4.153** |  |  |  |  | cell migration number (Mean ± SD) ([7]; 110 μg/mL): 464.50 ± 48.47; inhibition rate of HUVEC migration ([7]; 110 μg/mL): 56.21%; cell migration number (Mean ± SD) ([7]; 120 μg/mL): 542.89 ± 49.29; inhibition rate of HUVEC migration ([7]; 120 μg/mL): 48.82%*
mPEG-bALD5k-Arg-Gly-Ala-Asp-Arg-Ala-Gly-Gly-Gly-Gly-Arg-Gly-Asp ({mPEG‑bALD 5 kDa}-RGADRAGGGGRGD) [mPEG-bALD5k-HM-1] | 45.03 ± 11.46 | 53.14 ± 10.34 | 47.56 ± 12.22 | 55.63 ± 10.27 | 59.35 ± 12.64 | 41.42 ± 10.03 |  |  |  |  |  |  |  |  | 43.10 | 37.97 ± 3.914* | 489.28 ± 46.98 | 55.20% | 577.96 ± 58.76 | 47.08%* | cell migration number (Mean ± SD) ([7]; 30 μg/mL): 654.96 ± 52.07; inhibition rate of HUVEC migration ([7]; 30 μg/mL): 40.03%*; cell migration number (Mean ± SD) ([7]; 40 μg/mL): 545.96 ± 45.32; inhibition rate of HUVEC migration ([7]; 40 μg/mL): 50.01%
